Data: patent US6939830B1, “Method for fighting soil insects with phenyl-pyrazoles” (Basf Agro B.V. Arnhem (NL) - Wadenswil Branch, priority 1999, dated 2005)

Experiments:
[1] = system: larvae of click beetles of the genus Agriotes, in particular Agriotes sordidus; assay: Maize field trial, St Hilaire: emerged plants counted after bait granules incorporated in the sowing row; format: in vivo; settings: 22 days after sowing, 2 mm maize-meal granules with 0.25% fipronil, untreated 19
Source text: (§1) A surface of 0.1 ha is sown with maize at the rate of about 8000 untreated seeds. This surface is divided into 40-m^2 plots. At the same time as the sowing, there are incorporated into the soil, in the sowing row, 2 mm granules containing a composition consisting of: The quantities of granules thus spread vary from 2.5 to 10 kg per hectare. Untreated plots are kept to serve as control and to verify the extent of the damage by the insects. Likewise, the plots will be treated with a commercial insecticide which is reputed effective and called reference. Each modality is repeated four times. Approximately 20 days after sowing, the maize plants which have emerged are counted. The soil is dug out and scraped in order to capture and identify the insects responsible for the damage; a large presence of larvae of click beetles of the genus Agriotes, in particular Agriotes sordidus, is observed for the untreated control.

[2] = system: larvae of click beetles of the genus Agriotes, in particular Agriotes lineatus; assay: Maize field trial, Beaufort: emerged plants counted after bait granules incorporated in the sowing row; format: in vivo; settings: 50 days after sowing, 2 mm maize-meal granules with 0.25% fipronil, untreated 30
Source text: as §1, with “1” for “0.1”, “98, 100” for “8000”, “27-m^2” for “40-m^2”, “50” for “20”, “lineatus.” for “sordidus, is observed for the untreated control.”

[3] = dose of fipronil 6 g per hectare
[4] = dose of fipronil 50 g per hectare

N#Cc1nn(-c2c(Cl)cc(C(F)(F)F)cc2Cl)c(N)c1[S+]([O-])C(F)(F)F (stereo not shown) [fipronil, 5-amino-3-cyano-1-[2,6-di-chloro-4-(trifluoromethyl)phenyl]-4-[(trifluoromethyl)-sulphinyl]-1H-pyrazole]
plants observed per 10 meters of furrow [1, 3]: 49 plants per 10 meters of furrow | plants observed per 10 meters of furrow [1, 4]: 49 plants per 10 meters of furrow | plants observed per 10 meters of furrow [2, 3]: 40 plants per 10 meters of furrow | plants observed per 10 meters of furrow [2, 4]: 49.8 plants per 10 meters of furrow
